Experimental data: US20100035941A1, “METHODS FOR INCREASING BLOOD FLOW AND/OR PROMOTING TISSUE REGENERATION” (priority 2006, published 2010)
Values joined by “and” are separate entries in the source; they are usually repeats but may differ in a detail not shown here. Identical values can stand only once. Like-named read-outs stand apart in the source and are kept apart here.

Tests used:
progenitor cells = conditions: AMD3100 5 mg/Kg s.c. plus MIP-1α 5 μg I.V., 11 hours after rhu G-CSF or saline, 1 hour prior to assessing the blood
Method: Groups of mice were randomized to receive control diluent (saline) or G-CSF at a dose of 2.5 μg per mouse, twice a day, for two days via s.c. injection. […] One hour later, the mice were sacrificed and the number of progenitor cells per mL of blood were measured.

[1] = test system: nucleated cells per ml of blood; conditions: average of 5 donors, s.c. 80 μg/kg
Method: (§1) Five healthy human volunteers having initial white blood cell counts of 4,500-7,500 cells/mm^3 were used in the study. […] Blood samples were obtained via catheter prior to the dose, and at various times up to 24 hours after dosing.
(§2) All progenitor cell results are based on the scoring of 3 culture plates per assay per point.

[2] = test system: CFU-GM, BFU-E and CFU-GEMM progenitor cells; conditions: s.c. 80 μg/kg; for mean fold change vs T=0, methylcellulose culture BFU-E, MEAN / mean fold change vs T=0, methylcellulose culture CFU-GEMM, MEAN / mean fold change vs T=0, methylcellulose culture CFU-GM, MEAN / methylcellulose culture BFU-E, % CHG / methylcellulose culture CFU-GEMM, % CHG / methylcellulose culture CFU-GM, % CHG: 5 donors
Method: as §2
(§3) For the progenitor cell numbers and cycling status, the numbers of CFU-GM, BFU-E and CFU-GEMM in methylcellulose cultures by stimulation of the cells with 1 Unit (U)/ml recombinant human (rhu) erythropoietin, 100 U/ml rhu granulocyte-macrophage colony stimulating factor (GM-CSF), 100 U/ml rhu interleukin-3 (IL-3) and 50 ng/ml rhu steel factor (SLF=stem cell factor (SCF)). The CFU-GM were also evaluated in agar cultures stimulated with 100 U/ml rhu GM-CSF and 50 ng/ml rhu SLF. For both types of assays, colonies were scored after 14 day incubation in a humidified atmosphere with 5% CO2 and lowered (5%) O2 tension. Cell cycling status of progenitors was measured using a high specific activity tritiated thymidine kill technique as previously described (Broxmeyer, H. E., et al., Exp. Hematol. (1989) 17:455-459).

CFU-GM progenitor cells = conditions: donors' mean, s.c. 80 μg/kg
Method: as §2, §3

ischemic hind limb = experiment: Tissue regeneration in diabetic animal ischemic model: limb blood flow restoration, LASER Doppler; format: in vivo, male nude Hfh11 mice; conditions: diabetic mice
Method: Three to four weeks after injection of STZ the left hind limb was made ischemic by ligation of the iliac artery and removal of a 0.5-1 cm segment distal to the ligation.
One group of additional mice (n=11) was injected intramuscularly into the ischemic hindlimb with human non-diabetic-derived unmobilized CD34+ (unCD34+) peripheral blood mononuclear cells (PBMCs), two to four hours after surgery. […] Untreated mice served as controls (n=10).
Limb blood flow restoration was analyzed immediately before and after surgery and at various times thereafter in the entire limb distal to the ligation using LASER Doppler analysis.

bone marrow stem cells = conditions: rats; coronary ligation; injected within 4 to 6 hours, with or without rhG-CSF
Method: Adult rats are anesthetized and a thoracotomy is performed. The descending branch of the left coronary artery is ligated and not reperfused. […] Control rats are not treated with the reagents. The animals are monitored at one-week intervals by echocardiography and MRI. The experiment is terminated at 2, 6 to 12 weeks post-surgery. On the day of sacrifice, the hemodynamic functions are analyzed for left ventricle-end diastolic pressure, left ventricle-developed pressure and the rate of rise and fall of left ventricle pressure. The heart is then arrested in diastole and perfused via the abdominal aorta to flush residual blood from the vascular network of the myocardium. This is followed by perfusion of the heart with 10% formalin. Several slices are made through the fixed heart and these are embedded in paraffin and sections. The sections are stained and analyzed by light microscopy to determine the size of the infarct in the treated and control animals. Tissue sections from hearts taken at 2 weeks after surgery are stained with antibodies specific for immature, developing myocyte and blood vessel proteins and analyzed by confocal microscopy. The immunohistochemical analysis involves the identification of transcription factors and surface markers expressed in early stages of myocyte development.

[3] = test system: circulating CD34+ progenitor/stem cells; conditions: Phase 1 study; single dose of 80 μg/kg; 6 hour time point; cited from earlier work
[4] = test system: progenitors in DNA synthesis (S) phase of the cell cycle; conditions: for BFU-E Cycling Status of Progenitors / CFU-GEMM Cycling Status of Progenitors / CFU-GM Cycling Status of Progenitors: % progenitors in S phase; for BFU-E Cycling Status of Progenitors / CFU-GEMM Cycling Status of Progenitors / CFU-GM Cycling Status of Progenitors / AGAR Culture CFU-GM Cycling Status of Progenitors: s.c. 80 μg/kg
Method: as §3

[5] = test system: CD34 positive progenitor cells; conditions: human volunteers; single s.c. 80 μg/kg
Method: as §1
(§4) The blood samples were evaluated for total white blood cells, CD34 positive progenitor cells (via FACS analysis) as a percentage of total white blood cells, as well as the absolute numbers per mL and cycling status of granulocyte macrophage (CFU-GM), erythroid (BFU-E), and multipotential (CFU-GEMM) progenitor cells.

white blood cells = conditions: single s.c. 80 μg/kg
Method: as §1, §4

WBC = conditions: Phase 1 study; single dose of 80 μg/kg; cited from earlier work
[6] = ischemic hind limb, 5 mg/kg intraperitoneally on days 0 and 2
[7] = individual donors P1-P5, T = 1 hour
[8] = individual donors P1-P5, T = 3 hours
[9] = individual donors P1-P5, T = 6 hours
[10] = individual donors P1-P5, T = 9 hours
[11] = individual donors P1-P5, T = 24 hours

c1cc(CN2CCCNCCNCCCNCC2)ccc1CN1CCCNCCNCCCNCC1 [AMD3100, 1,1′-[1,4-phenylene-bis(methylene)]-bis-1,4,8,11-tetraazacyclotetradecane]
mobilization of progenitor cells in combination with mu MIP-1α (progenitor cells): additive to greater than additive | Fold Change Compared to TIME = 0, nucleated cellularity PBL-LD, MEAN ([1]; T = 1 hour): 1.86 | Fold Change Compared to TIME = 0, nucleated cellularity PBL-US, MEAN ([1]; T = 1 hour): 1.69 | nucleated cellularity PBL-LD, % CHG ([1]; T = 1 hour): 86.2% | nucleated cellularity PBL-US, % CHG ([1]; T = 1 hour): 68.6% | Fold Change Compared to TIME = 0, nucleated cellularity PBL-LD, MEAN ([1]; T = 3 hours): 2.86 | Fold Change Compared to TIME = 0, nucleated cellularity PBL-US, MEAN ([1]; T = 3 hours): 2.80 | nucleated cellularity PBL-LD, % CHG ([1]; T = 3 hours): 185.6% | nucleated cellularity PBL-US, % CHG ([1]; T = 3 hours): 180.2% | Fold Change Compared to TIME = 0, nucleated cellularity PBL-LD, MEAN ([1]; T = 6 hours): 3.66 | Fold Change Compared to TIME = 0, nucleated cellularity PBL-US, MEAN ([1]; T = 6 hours): 3.26 | nucleated cellularity PBL-LD, % CHG ([1]; T = 6 hours): 266.3% | nucleated cellularity PBL-US, % CHG ([1]; T = 6 hours): 225.8% | Fold Change Compared to TIME = 0, nucleated cellularity PBL-LD, MEAN ([1]; T = 9 hours): 3.64 | Fold Change Compared to TIME = 0, nucleated cellularity PBL-US, MEAN ([1]; T = 9 hours): 3.09 | nucleated cellularity PBL-LD, % CHG ([1]; T = 9 hours): 264.3% | nucleated cellularity PBL-US, % CHG ([1]; T = 9 hours): 209.4% | Fold Change Compared to TIME = 0, nucleated cellularity PBL-LD, MEAN ([1]; T = 24 hours): 1.05 | Fold Change Compared to TIME = 0, nucleated cellularity PBL-US, MEAN ([1]; T = 24 hours): 1.07 | nucleated cellularity PBL-LD, % CHG ([1]; T = 24 hours): 4.6% | nucleated cellularity PBL-US, % CHG ([1]; T = 24 hours): 7.0% | mean fold change vs T=0, methylcellulose culture BFU-E, MEAN ([2]; T = 1 hour): 1.99 | mean fold change vs T=0, methylcellulose culture CFU-GEMM, MEAN ([2]; T = 1 hour): 2.32 | mean fold change vs T=0, methylcellulose culture CFU-GM, MEAN ([2]; T = 1 hour): 4.77 | methylcellulose culture BFU-E, % CHG ([2]; T = 1 hour): 98.9% | methylcellulose culture CFU-GEMM, % CHG ([2]; T = 1 hour): 131.8% | methylcellulose culture CFU-GM, % CHG ([2]; T = 1 hour): 376.7% | mean fold change vs T=0, methylcellulose culture BFU-E, MEAN ([2]; T = 3 hours): 3.21 | mean fold change vs T=0, methylcellulose culture CFU-GEMM, MEAN ([2]; T = 3 hours): 4.33 | mean fold change vs T=0, methylcellulose culture CFU-GM, MEAN ([2]; T = 3 hours): 13.66 | methylcellulose culture BFU-E, % CHG ([2]; T = 3 hours): 221.3% | methylcellulose culture CFU-GEMM, % CHG ([2]; T = 3 hours): 332.5% | methylcellulose culture CFU-GM, % CHG ([2]; T = 3 hours): 1266.5% | mean fold change vs T=0, methylcellulose culture BFU-E, MEAN ([2]; T = 6 hours): 6.01 | mean fold change vs T=0, methylcellulose culture CFU-GEMM, MEAN ([2]; T = 6 hours): 10.07 | mean fold change vs T=0, methylcellulose culture CFU-GM, MEAN ([2]; T = 6 hours): 21.71 | methylcellulose culture BFU-E, % CHG ([2]; T = 6 hours): 500.5% | methylcellulose culture CFU-GEMM, % CHG ([2]; T = 6 hours): 907.2% | methylcellulose culture CFU-GM, % CHG ([2]; T = 6 hours): 2070.6% | mean fold change vs T=0, methylcellulose culture BFU-E, MEAN ([2]; T = 9 hours): 4.34 | mean fold change vs T=0, methylcellulose culture CFU-GEMM, MEAN ([2]; T = 9 hours): 5.25 | mean fold change vs T=0, methylcellulose culture CFU-GM, MEAN ([2]; T = 9 hours): 10.47 | methylcellulose culture BFU-E, % CHG ([2]; T = 9 hours): 334.4% | methylcellulose culture CFU-GEMM, % CHG ([2]; T = 9 hours): 425.4% | methylcellulose culture CFU-GM, % CHG ([2]; T = 9 hours): 947.3% | mean fold change vs T=0, methylcellulose culture BFU-E, MEAN ([2]; T = 24 hours): 1.26 | mean fold change vs T=0, methylcellulose culture CFU-GEMM, MEAN ([2]; T = 24 hours): 1.53 | mean fold change vs T=0, methylcellulose culture CFU-GM, MEAN ([2]; T = 24 hours): 1.56 | methylcellulose culture BFU-E, % CHG ([2]; T = 24 hours): 26.3% | methylcellulose culture CFU-GEMM, % CHG ([2]; T = 24 hours): 53.2% | methylcellulose culture CFU-GM, % CHG ([2]; T = 24 hours): 55.5% | time after injection of maximal fold increases in circulating levels of progenitor cells ([2]; all five human donors): 6 h | agar culture CFU-GM, % CHG (CFU-GM progenitor cells; T = 1 hour): 180.8% | mean fold change vs T=0, agar culture CFU-GM, MEAN (CFU-GM progenitor cells; T = 1 hour): 2.81 | agar culture CFU-GM, % CHG (CFU-GM progenitor cells; T = 3 hours): 754.1% | mean fold change vs T=0, agar culture CFU-GM, MEAN (CFU-GM progenitor cells; T = 3 hours): 8.54 | agar culture CFU-GM, % CHG (CFU-GM progenitor cells; T = 6 hours): 1692.8% | mean fold change vs T=0, agar culture CFU-GM, MEAN (CFU-GM progenitor cells; T = 6 hours): 17.93 | agar culture CFU-GM, % CHG (CFU-GM progenitor cells; T = 9 hours): 924.9% | mean fold change vs T=0, agar culture CFU-GM, MEAN (CFU-GM progenitor cells; T = 9 hours): 10.25 | agar culture CFU-GM, % CHG (CFU-GM progenitor cells; T = 24 hours): 108.3% | mean fold change vs T=0, agar culture CFU-GM, MEAN (CFU-GM progenitor cells; T = 24 hours): 2.08 | time at which drug induced improvement was observed (ischemic hind limb; [6]): two | time by which blood flow had reached its maximum (ischemic hind limb; [6]): seven | blood flow maintained, mean % of the initial flow (plateau) (ischemic hind limb; ischemic hind limb, 5 mg/kg intraperitoneally on the day of and two days after surgery, mean flow d8-d24): 74.6±2.8% | overall effect of systemic therapy on blood flow restoration (ischemic hind limb; ischemic limb, systemic (intraperitoneal) treatment): accelerated blood flow restoration, but did not increase it | expected effect on ischemic myocardium (bone marrow stem cells): will lead to regeneration of the dead myocardium | peak increase in circulating CD34+ progenitor/stem cells [3]: 6 fold | BFU-E Cycling Status of Progenitors [4, 7]: 3% and 0% (4×) | CFU-GEMM Cycling Status of Progenitors [4, 7]: 6% and 0% (4×) | CFU-GM Cycling Status of Progenitors [4, 7]: 1% and 0% (4×) | CFU-GEMM Cycling Status of Progenitors [4, 8]: 0% (4×) and 7% | BFU-E Cycling Status of Progenitors [4, 9]: 0% (4×) and 1% | CFU-GEMM Cycling Status of Progenitors [4, 9]: 0% (4×) and 8% | CFU-GM Cycling Status of Progenitors [4, 9]: 0% | BFU-E Cycling Status of Progenitors [4, 10]: 0% (4×) and 11% | CFU-GEMM Cycling Status of Progenitors [4, 10]: 4% and 0% (4×) | CFU-GM Cycling Status of Progenitors [4, 10]: 2% and 0% (4×) | BFU-E Cycling Status of Progenitors [4, 11]: 2% and 0% (3×) and 3% | CFU-GEMM Cycling Status of Progenitors [4, 11]: 0% | CFU-GM Cycling Status of Progenitors [4, 11]: 0% (3×) and 3% and 5% | AGAR Culture CFU-GM Cycling Status of Progenitors [4, 7]: 3% and 0% (4×) | AGAR Culture CFU-GM Cycling Status of Progenitors [4, 8]: 0% (4×) and 1% | AGAR Culture CFU-GM Cycling Status of Progenitors [4, 9]: 1% and 0% (2×) and 3% (2×) | AGAR Culture CFU-GM Cycling Status of Progenitors ([4]; individual donors P2-P5, T = 9 hours): 0% | AGAR Culture CFU-GM Cycling Status of Progenitors ([4]; individual donors P2-P5, T = 24 hours): 0% | cycling state of progenitors ([4]; prior to and 1, 3, 6, 9 and 24 hours after injection, human donors): slow or non-cycling state | time post-administration at which elevation of CD34 positive progenitor cells maximized [5]: 6 h | time post-administration at which elevation of the white blood cell count maximized (white blood cells; human volunteers): 6 h | mobilization of white blood cells in individual volunteers (white blood cells; 2 Hr, volunteers P1-P5): 12.4 × 10^3 WBC's and 21.4 × 10^3 WBC's and 13.5 × 10^3 WBC's | WBC count (WBC): 17,000 /μl
